Measurements as given in ChEMBL document CHEMBL1123813, “Chemistry and inhibitory activity of long chain fatty acid oxidation of emeriamine and its analogues” (J Med Chem, 1987).

What was measured:
[1] = species on record: Rattus norvegicus; assay: Inhibition of carnitine-dependent oxidation of [1-14C]palmitate to 14CO2 in rat liver mitochondria was measured in vitro at 2*10e-1 mM concentration; format: functional
[2] = species on record: Rattus norvegicus; assay: Inhibition of carnitine-dependent oxidation of [1-14C]palmitate to 14CO2 in rat liver mitochondria was measured in vitro at 2 mM concentration
[3] = species on record: Rattus norvegicus; assay: Inhibition of carnitine-dependent oxidation of [1-14C]palmitate to 14CO2 in rat liver mitochondria was measured in vitro at 2*10e-2 mM concentration; format: functional
[4] = species on record: Rattus norvegicus; assay: Inhibition of carnitine-dependent oxidation of [1-14C]palmitate to 14CO2 in rat liver mitochondria was measured in vitro at 2*10e-3 mM concentration; format: functional

| Compound | inhibition [1] [%] | inhibition [2] [%] | inhibition [3] [%] | inhibition [4] [%] |
| --- | --- | --- | --- | --- |
| Cc1ccc(S(=O)(=O)NC(CC(=O)[O-])C[N+](C)(C)C)cc1 (stereo not drawn) | 84 | 100 |  |  |
| CCC(=O)NC(CC(=O)[O-])C[N+](C)(C)C (stereo not drawn) |  | 44 |  |  |
| CNC(CC(=O)[O-])C[N+](C)(C)C (stereo not drawn) | 89 | 100 |  |  |
| COC(=O)NC(CC(=O)[O-])C[N+](C)(C)C (stereo not drawn) | 0 | 0 |  |  |
| CC(=O)NC(CC(=O)[O-])C[N+](C)(C)C (stereo not drawn) | 6 | 38 |  |  |
| C[N+](C)(C)CC(N)CC(N)=O (stereo not drawn) |  |  | 27 | 10 |
| CCCCCCCCCCCCCCCC(=O)NC(CC(=O)[O-])C[N+](C)(C)C (stereo not drawn) |  |  | 100 | 100 |
| C[N+](C)(C)C[C@@H](CC(=O)[O-])NC=O | 53 | 84 |  |  |
| CCOC(=O)CC(N)C[N+](C)(C)C (stereo not drawn) |  |  | 85 | 37 |
| C[N+](C)(C)C[C@H](N)CC(=O)[O-] |  |  | 90 | 59 |
| CCCC(=O)NC(CC(=O)[O-])C[N+](C)(C)C (stereo not drawn) |  | 50 |  |  |
| COC(=O)CC(N)C[N+](C)(C)C (stereo not drawn) |  |  | 73 | 26 |
| C[N+](C)(C)CC(CC(=O)[O-])NC(N)=O (stereo not drawn) | 84 | 72 |  |  |
| C[N+](C)(C)CC(CC(=O)[O-])NC(=O)OCc1ccccc1 (stereo not drawn) | 85 | 98 |  |  |
| CCCCCCCCCCCCCC(=O)NC(CC(=O)[O-])C[N+](C)(C)C (stereo not drawn) |  |  | 100 | 100 |
